Calls of active or inactive are those of the source. The calls are words filed in the database; no cut-off is given here.
Legend:
[1] = target: Receptor tyrosine-protein kinase erbB-2 (Homo sapiens, UniProt P04626); assay: Inhibition of HER2 overexpressed in mouse 3T3 cells by ELISA; assay type: cell-based, NIH3T3; conditions: for Activity: NIH3T3
[2] = target: Human immunodeficiency virus type 1 integrase (Human immunodeficiency virus 1) (UniProt Q7ZJM1); assay: Inhibition of HIV1 integrase at 5 ug/ml by scintillation proximity assay
Sequence of Human immunodeficiency virus type 1 integrase (Human immunodeficiency virus 1) (Q7ZJM1 as listed by the source): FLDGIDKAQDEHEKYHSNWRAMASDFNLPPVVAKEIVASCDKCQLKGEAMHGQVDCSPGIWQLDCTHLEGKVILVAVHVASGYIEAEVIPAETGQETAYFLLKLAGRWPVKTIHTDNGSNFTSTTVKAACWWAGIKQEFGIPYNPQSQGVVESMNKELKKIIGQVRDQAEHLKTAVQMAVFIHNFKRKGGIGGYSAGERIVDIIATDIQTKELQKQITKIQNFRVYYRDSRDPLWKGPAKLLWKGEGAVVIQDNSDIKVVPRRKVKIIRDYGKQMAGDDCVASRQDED

[3] = target: Human immunodeficiency virus type 1 integrase (Human immunodeficiency virus 1) (UniProt Q7ZJM1); assay: Inhibition of HIV1 integrase at 1 ug/ml by scintillation proximity assay
[4] = target: T1, Neuropeptide Y receptor type 1 (Rattus norvegicus, UniProt P21555); assay: (§1) Displacement of [3H]NPY from neuropeptide Y receptor in rat cerebral cortices
T1 sequence (P21555 whole entry): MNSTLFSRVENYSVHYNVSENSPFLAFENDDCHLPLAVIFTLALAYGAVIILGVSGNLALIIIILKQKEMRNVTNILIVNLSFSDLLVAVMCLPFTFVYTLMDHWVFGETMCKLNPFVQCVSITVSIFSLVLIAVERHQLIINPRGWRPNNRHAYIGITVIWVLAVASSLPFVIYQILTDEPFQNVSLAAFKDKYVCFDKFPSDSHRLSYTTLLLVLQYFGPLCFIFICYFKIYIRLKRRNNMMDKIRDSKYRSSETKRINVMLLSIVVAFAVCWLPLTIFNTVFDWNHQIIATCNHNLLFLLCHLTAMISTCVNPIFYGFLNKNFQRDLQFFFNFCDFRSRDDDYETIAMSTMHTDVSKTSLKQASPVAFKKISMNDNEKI

[5] = target: T2, B2 bradykinin receptor (Homo sapiens) (UniProt P30411); assay: Displacement of [3H]bradykinin from human bradykinin B2 receptor expressed in baculovirus-infected SF21 cells
T2 sequence (whole entry): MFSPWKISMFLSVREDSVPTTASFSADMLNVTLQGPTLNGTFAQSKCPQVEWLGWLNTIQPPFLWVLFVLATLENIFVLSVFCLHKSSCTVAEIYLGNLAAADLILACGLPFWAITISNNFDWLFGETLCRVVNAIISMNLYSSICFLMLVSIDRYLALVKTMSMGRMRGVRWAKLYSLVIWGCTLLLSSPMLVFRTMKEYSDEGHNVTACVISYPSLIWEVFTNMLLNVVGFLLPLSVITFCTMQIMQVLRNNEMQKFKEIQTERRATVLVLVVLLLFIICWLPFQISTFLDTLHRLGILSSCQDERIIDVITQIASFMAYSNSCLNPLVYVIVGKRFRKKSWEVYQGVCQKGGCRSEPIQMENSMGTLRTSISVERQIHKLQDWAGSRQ

[6] = target: T3, VIP peptides (Homo sapiens) (UniProt P01282); assay: Binding affinity to vasoactive intestinal peptide
T3 sequence (whole entry): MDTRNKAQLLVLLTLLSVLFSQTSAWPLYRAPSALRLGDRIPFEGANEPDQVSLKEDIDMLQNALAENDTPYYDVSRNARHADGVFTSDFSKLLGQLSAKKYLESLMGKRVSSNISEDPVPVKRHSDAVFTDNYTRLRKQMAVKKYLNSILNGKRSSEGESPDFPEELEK

[7] = Binding affinity to neurotensin receptor
[8] = target: T4, Neuromedin-K receptor (Homo sapiens) (UniProt P29371); assay: Binding affinity to NK3 receptor
T4 sequence (whole entry): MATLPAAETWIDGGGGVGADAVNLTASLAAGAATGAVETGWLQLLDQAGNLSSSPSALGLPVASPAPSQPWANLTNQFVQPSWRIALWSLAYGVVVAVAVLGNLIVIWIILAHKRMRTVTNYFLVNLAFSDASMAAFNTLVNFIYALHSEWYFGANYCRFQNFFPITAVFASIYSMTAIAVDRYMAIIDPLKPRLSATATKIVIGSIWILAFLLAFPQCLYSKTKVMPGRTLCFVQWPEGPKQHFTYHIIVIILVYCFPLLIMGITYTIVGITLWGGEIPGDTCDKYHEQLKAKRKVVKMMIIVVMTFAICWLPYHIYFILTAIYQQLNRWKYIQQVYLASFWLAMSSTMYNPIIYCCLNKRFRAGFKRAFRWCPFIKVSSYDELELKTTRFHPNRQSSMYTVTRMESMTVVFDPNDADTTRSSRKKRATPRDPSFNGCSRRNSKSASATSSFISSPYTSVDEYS

Rattus norvegicus = organism: Rattus norvegicus; assay: Displacement of radioiodinated somatostatins from rat somatostatin receptor
[9] = Binding affinity to galanin receptor
[10] = target: T5, Neuropeptide Y receptor type 1 (Rattus norvegicus) (UniProt P21555); assay: as §1
T5 sequence (whole entry): T1 sequence (P21555 whole entry)

Sequence of Receptor tyrosine-protein kinase erbB-2 (P04626 whole entry): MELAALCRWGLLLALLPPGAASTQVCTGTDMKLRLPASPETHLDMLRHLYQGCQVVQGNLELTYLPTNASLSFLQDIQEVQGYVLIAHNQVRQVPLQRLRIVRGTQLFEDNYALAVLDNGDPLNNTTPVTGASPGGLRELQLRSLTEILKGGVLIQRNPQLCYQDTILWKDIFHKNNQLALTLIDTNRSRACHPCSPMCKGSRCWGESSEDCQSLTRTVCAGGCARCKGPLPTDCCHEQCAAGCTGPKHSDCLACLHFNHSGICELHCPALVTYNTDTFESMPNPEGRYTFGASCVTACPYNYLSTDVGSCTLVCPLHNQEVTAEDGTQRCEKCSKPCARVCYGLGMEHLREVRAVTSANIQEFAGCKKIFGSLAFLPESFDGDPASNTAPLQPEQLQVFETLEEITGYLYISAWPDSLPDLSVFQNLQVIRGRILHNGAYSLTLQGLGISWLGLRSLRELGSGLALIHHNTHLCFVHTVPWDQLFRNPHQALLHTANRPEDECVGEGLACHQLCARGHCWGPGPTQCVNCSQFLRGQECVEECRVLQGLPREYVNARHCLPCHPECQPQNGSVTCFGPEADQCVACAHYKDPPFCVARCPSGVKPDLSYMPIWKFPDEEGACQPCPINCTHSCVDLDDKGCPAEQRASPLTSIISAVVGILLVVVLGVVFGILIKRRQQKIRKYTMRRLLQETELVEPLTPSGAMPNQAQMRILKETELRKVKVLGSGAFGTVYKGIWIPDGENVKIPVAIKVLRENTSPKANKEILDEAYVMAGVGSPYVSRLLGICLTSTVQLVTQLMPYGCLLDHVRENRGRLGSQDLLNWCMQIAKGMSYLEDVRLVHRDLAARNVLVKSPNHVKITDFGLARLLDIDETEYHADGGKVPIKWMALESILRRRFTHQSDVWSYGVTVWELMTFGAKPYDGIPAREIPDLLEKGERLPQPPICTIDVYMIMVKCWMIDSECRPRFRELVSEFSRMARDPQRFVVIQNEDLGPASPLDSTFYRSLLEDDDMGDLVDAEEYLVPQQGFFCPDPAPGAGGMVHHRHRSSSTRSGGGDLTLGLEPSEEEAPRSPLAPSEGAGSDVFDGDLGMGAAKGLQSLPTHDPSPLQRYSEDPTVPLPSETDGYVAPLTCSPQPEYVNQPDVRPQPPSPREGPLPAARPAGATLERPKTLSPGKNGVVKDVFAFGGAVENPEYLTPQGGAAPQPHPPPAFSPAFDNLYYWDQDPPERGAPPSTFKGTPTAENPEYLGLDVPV

Structure (SMILES) | IC50 [1] | inhibition [2] | inhibition [3] | IC50 [4] | Activity [5] | Activity [6] | Activity [7] | Activity [1] | Activity [3] | Activity [8] | Activity (Rattus norvegicus) | Activity [2] | Activity [9] | Activity [10]
CC(C)=CCC/C(C)=C/CC/C(C)=C/CC/C(C)=C/CC/C(C)=C/CC/C(C)=C/CC/C(=C/Cc1cc(O)ccc1O)CO | 9.79 µM | 45% |  |  |  |  |  |  |  |  |  |  |  | 
CC(C)=CCC/C(C)=C/CC/C(C)=C/CC/C(C)=C/CCC1(C)C=Cc2cc(O)ccc2O1 (configuration not stated) |  |  |  |  | inactive | inactive | inactive | inactive | inactive | inactive | inactive | inactive | inactive | inactive
CC(C)=CCC/C(C)=C/CC/C(C)=C/CC/C(C)=C/CC/C(C)=C/CCC1(C)C=Cc2cc(O)ccc2O1 (configuration not stated) |  |  |  |  | inactive | inactive | inactive | inactive | inactive | inactive | inactive | inactive | inactive | inactive
CC(C)=CCC/C(C)=C/CC/C(C)=C/CC/C(C)=C/CC/C(C)=C/CC/C(C)=C/CCC1(C)C=Cc2cc(O)ccc2O1 (configuration not stated) |  |  |  |  | inactive | inactive | inactive | inactive | inactive | inactive | inactive | inactive | inactive | inactive

Other lines, results leading:

IC50 [1] | inhibition [2] | inhibition [3] | IC50 [4] | Activity [5] | Activity [6] | Activity [7] | Activity [1] | Activity [3] | Activity [8] | Activity (Rattus norvegicus) | Activity [2] | Activity [9] | Activity [10] | Structure (SMILES)
14.5 µM |  | 65% | 91.9 µM |  |  |  |  |  |  |  |  |  |  | CC(C)=CCC/C(C)=C/CC/C(C)=C/CC/C(C)=C/CC/C(C)=C/Cc1cc(OS(=O)(=O)O)ccc1O
11.6 µM |  |  |  |  |  |  |  |  |  |  |  |  |  | CC(C)=CCC/C(C)=C/CC/C(C)=C/CC/C(C)=C/CC/C(C)=C/CC/C(C)=C/CC/C(C)=C/Cc1cc(OS(=O)(=O)O)ccc1O
6.44 µM |  |  |  |  |  |  |  |  |  |  |  |  |  | CC(C)=CCC/C(C)=C/CC/C(C)=C/CC/C(C)=C/CC/C(C)=C/CC/C(C)=C/Cc1cc(OS(=O)(=O)O)ccc1O

— ChEMBL document CHEMBL1159294, “Bioactive Prenylhydroquinone Sulfates and a Novel C 31 Furanoterpene Alcohol Sulfate from the Marine Sponge, Ircinia Sp” (J Nat Prod, 1995)
